# Measured values: patent US11203574B2 (BioCryst Pharmaceuticals, Inc., priority 2014, dated 2021)
# Target: human plasma kallikrein (Homo sapiens (Human), UniProt P03952)
# Experiment: Plasma kallikrein activity assay (chromogenic substrate S2302)
# Type: biochemical
# Details: 2 nM kallikrein, 80 μM S2302, 30° C., pH 7.8; Ki by Cheng-Prusoff equation; values given as ranges; read-out: Ki
# human plasma kallikrein, sequence (P03952 whole entry, looked up): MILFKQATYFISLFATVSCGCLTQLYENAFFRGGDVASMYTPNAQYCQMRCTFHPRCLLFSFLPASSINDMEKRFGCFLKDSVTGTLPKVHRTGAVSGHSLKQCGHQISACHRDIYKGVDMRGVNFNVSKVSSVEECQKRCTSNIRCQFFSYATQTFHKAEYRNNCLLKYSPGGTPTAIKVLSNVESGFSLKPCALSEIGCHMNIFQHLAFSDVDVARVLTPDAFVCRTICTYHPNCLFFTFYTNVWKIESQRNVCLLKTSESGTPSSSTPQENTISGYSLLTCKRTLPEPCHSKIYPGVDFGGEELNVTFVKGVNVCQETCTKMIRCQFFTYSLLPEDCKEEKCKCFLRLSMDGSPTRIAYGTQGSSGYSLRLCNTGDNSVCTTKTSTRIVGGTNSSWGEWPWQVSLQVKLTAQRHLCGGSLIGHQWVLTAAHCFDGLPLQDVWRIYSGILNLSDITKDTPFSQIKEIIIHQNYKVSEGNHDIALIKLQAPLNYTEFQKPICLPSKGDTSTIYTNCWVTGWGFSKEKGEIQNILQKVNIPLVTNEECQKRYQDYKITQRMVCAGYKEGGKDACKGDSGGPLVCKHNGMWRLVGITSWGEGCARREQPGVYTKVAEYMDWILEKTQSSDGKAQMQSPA
# human plasma kallikrein, sequence (P03952 whole entry partner, looked up): as the sequence (P03952 whole entry, looked up) above
row,Structure (SMILES),Ki
1,"NCc1cccc(-n2nc(C(F)(F)F)cc2C(=O)Nc2cccc(C(O)(CCC3CC3)c3ccccc3)c2)c1 (racemic) [46g, 1-(3-(aminomethyl)phenyl)-N-(3-(3-cyclopropyl-1-hydroxy-1-phenylpropyl)phenyl)-3-(trifluoromethyl)-1H-pyrazole-5-carboxamide]",0.1 to 50 nM
2,"NCc1cccc(-n2nc(C(F)(F)F)cc2C(=O)Nc2cccc(C(NCC3CC3)c3ccc(-c4ccccc4)cc3)c2)c1 (stereo not shown) [133g, 1-(3-(aminomethyl)phenyl)-N-(3-(biphenyl-4-yl(cyclopropylmethylamino)methyl)phenyl)-3-(trifluoromethyl)-1H-pyrazole-5-carboxamide]",0.1 to 50 nM
3,"CC(=O)NC(CCC1CC1)(c1cccnc1)c1ccc(F)c(NC(=O)c2cc(C(F)(F)F)nn2-c2cccc(CN)c2)c1 (single isomer, unassigned; (-)) [244h, (−)-N-(5-(1-acetamido-3-cyclopropyl-1-(pyridin-3-yl)propyl)-2-fluorophenyl)-1-(3-(aminomethyl)phenyl)-3-(trifluoromethyl)-1H-pyrazole-5-carboxamide]",0.1 to 50 nM
4,"CC(C)COC(c1ccccc1)c1cccc(NC(=O)c2cc(C(F)(F)F)nn2-c2cccc(CN)c2)c1 (stereo not shown) [18i, 1-(3-(aminomethyl)phenyl)-N-(3-(isobutoxy(phenyl)methyl)phenyl)-3-(trifluoromethyl)-1H-pyrazole-5-carboxamide]",50 to 100 nM
5,"NCc1cccc(-n2nc(C(F)(F)F)cc2C(=O)Nc2cccc(C(OCC3CC3)c3ccccc3)c2)c1 (single isomer, unassigned; (+)) [166e, (+)-1-(3-(aminomethyl)phenyl)-N-(3-((cyclopropylmethoxy)(phenyl)methyl)phenyl)-3-(trifluoromethyl)-1H-pyrazole-5-carboxamide]",0.1 to 50 nM
6,"Cc1cccc(C(NCC2CC2)c2cccc(NC(=O)c3cc(C(F)(F)F)nn3-c3cccc(CN)c3)c2)c1 (stereo not shown) [110f, 1-(3-(Aminomethyl)phenyl)-N-(3-((cyclopropylmethylamino)(m-tolyl)methyl)phenyl)-3-(trifluoromethyl)-1H-pyrazole-5-carboxamide]",0.1 to 50 nM
7,"N#Cc1cccc(C(N)(CCC2CC2)c2ccc(F)c(NC(=O)c3cc(C(F)(F)F)nn3-c3cccc(CN)c3)c2)n1 (single isomer, unassigned; (+)) [220f, (+)-N-(5-(1-amino-1-(6-cyanopyridin-2-yl)-3-cyclopropylpropyl)-2-fluorophenyl)-1-(3-(aminomethyl)phenyl)-3-(trifluoromethyl)-1H-pyrazole-5-carboxamide]",0.1 to 50 nM
8,"CCCOc1ccc(C(NCC2CC2)c2cccc(NC(=O)c3cc(C(F)(F)F)nn3-c3cccc(CN)c3)c2)cc1 (stereo not shown) [127f, 1-(3-(Aminomethyl)phenyl)-N-(3-((cyclopropylmethylamino)(4-propoxyphenyl)methyl)phenyl)-3-(trifluoromethyl)-1H-pyrazole-5-carboxamide]",0.1 to 50 nM
9,"CS(=O)(=O)c1cccc(C(NCC2CC2)c2cccc(NC(=O)c3cc(C(F)(F)F)nn3-c3cccc(CN)c3)c2)c1 (stereo not shown) [114f, 1-(3-(aminomethyl)phenyl)-N-(3-((cyclopropylmethylamino)(3-(methylsulfonyl)phenyl)methyl)phenyl)-3-(trifluoromethyl)-1H-pyrazole-5-carboxamide]",0.1 to 50 nM
10,"NCc1cccc(-n2nc(C(F)(F)F)cc2C(=O)Nc2cc(C(N)(CCC3CC3)c3ccncc3)ccc2F)c1 (single isomer, unassigned; (-)) [217d, (−)-N-(5-(1-amino-3-cyclopropyl-1-(pyridin-4-yl)propyl)-2-fluorophenyl)-1-(3-(aminomethyl)phenyl)-3-(trifluoromethyl)-1H-pyrazole-5-carboxamide]",50 to 100 nM
11,"N#Cc1cccc(C(N)(CCC2CC2)c2cccc(NC(=O)c3cc(C(F)(F)F)nn3-c3cccc(CN)c3)c2)c1 (single isomer, unassigned; (+)) [219c, (+)-N-(3-(1-amino-1-(3-cyanophenyl)-3-cyclopropylpropyl)phenyl)-1-(3-(aminomethyl)phenyl)-3-(trifluoromethyl)-1H-pyrazole-5-carboxamide]",0.1 to 50 nM
12,"NCc1cccc(-n2nc(C(F)(F)F)cc2C(=O)Nc2cccc(C(OCC3CC3)c3nccs3)c2)c1 (stereo not shown) [82f, 1-(3-(aminomethyl)phenyl)-N-(3-((cyclopropylmethoxy)(thiazol-2-yl)methyl)phenyl)-3-(trifluoromethyl)-1H-pyrazole-5-carboxamide]",0.1 to 50 nM
13,"Nc1nccc2ccc(-n3nc(C(F)(F)F)cc3C(=O)Nc3cc(C(N)(CCC4CC4)c4ccncc4)ccc3F)cc12 (single isomer, unassigned; (+)) [253e, (+)-N-(5-(1-amino-3-cyclopropyl-1-(pyridin-4-yl)propyl)-2-fluorophenyl)-1-(1-aminoisoquinolin-7-yl)-3-(trifluoromethyl)-1H-pyrazole-5-carboxamide]",0.1 to 50 nM
14,"NCc1cccc(-n2nc(C(F)(F)F)cc2C(=O)Nc2cccc(C(O)(CCC3CC3)c3cccnc3)c2)c1 (single isomer, unassigned; (-)) [47g, (−)-1-(3-(aminomethyl)phenyl)-N-(3-(3-cyclopropyl-1-hydroxy-1-(pyridin-3-yl)propyl)phenyl)-3-(trifluoromethyl)-1H-pyrazole-5-carboxamide]",0.1 to 50 nM
15,"NCc1cccc(-n2nc(C(F)(F)F)cc2C(=O)Nc2cccc(C(NCC3CC3)c3cc(O)ccc3O)c2)c1 (stereo not shown) [146g, 1-(3-(aminomethyl)phenyl)-N-(3-((cyclopropylmethylamino)(2,5-dihydroxyphenyl)methyl)phenyl)-3-(trifluoromethyl)-1H-pyrazole-5-carboxamide]",0.1 to 50 nM
16,"NCc1cccc(-n2nc(C(F)(F)F)cc2C(=O)Nc2cccc(C(NCC3CC3)c3cccc(OC(F)(F)F)c3)c2)c1 (stereo not shown) [124f, 1-(3-(aminomethyl)phenyl)-N-(3-((cyclopropylmethylamino)(3-(trifluoromethoxy)phenyl)methyl)phenyl)-3-(trifluoromethyl)-1H-pyrazole-5-carboxamide]",0.1 to 50 nM
17,"NCc1cccc(-n2nc(C(F)(F)F)cc2C(=O)Nc2cc(C(=CCC3CC3)c3ccccc3)ccc2F)c1 [252c, 1-(3-(aminomethyl)phenyl)-N-(5-(3-cyclopropyl-1-phenylprop-1-enyl)-2-fluorophenyl)-3-(trifluoromethyl)-1H-pyrazole-5-carboxamide]",0.1 to 50 nM
18,"Nc1nccc2ccc(-n3nc(C(F)(F)F)cc3C(=O)Nc3cc(C(CCC4CC4)n4ccncc4=O)ccc3F)cc12 (stereo not shown) [259d, 1-(1-aminoisoquinolin-7-yl)-N-(5-(3-cyclopropyl-1-(2-oxopyrazin-1(2H)-yl)propyl)-2-fluorophenyl)-3-(trifluoromethyl)-1H-pyrazole-5-carboxamide]",0.1 to 50 nM
19,"NCc1cccc(-n2nc(C(F)(F)F)cc2C(=O)Nc2cccc(C(OCC3CC3)c3ccccn3)c2)c1 (single isomer, unassigned; (+)) [43h, (+)-1-(3-(aminomethyl)phenyl)-N-(3-((cyclopropylmethoxy)(pyridin-2-yl)methyl)-phenyl)-3-(trifluoromethyl)-1H-pyrazole-5-carboxamide]",0.1 to 50 nM
20,"NCc1cccc(-n2nc(C(F)(F)F)cc2C(=O)Nc2cccc(C(NCC3CC3)c3cccc(N)c3)c2)c1 (stereo not shown) [102b, 1-(3-(aminomethyl)phenyl)-N-(3-((3-aminophenyl)(cyclopropylmethylamino)methyl)phenyl)-3-(trifluoromethyl)-1H-pyrazole-5-carboxamide]",0.1 to 50 nM
21,"NCc1cccc(-n2nc(C(F)(F)F)cc2C(=O)Nc2cccc(C(NCC3CC3)c3ccc(Cl)cc3Cl)c2)c1 (stereo not shown) [200f, 1-(3-(aminomethyl)phenyl)-N-(3-((2,4-dichlorophenyl)((cyclopropylmethyl)amino)methyl)phenyl)-3-(trifluoromethyl)-1H-pyrazole-5-carboxamide]",0.1 to 50 nM
22,"NCc1cccc(-n2nc(C(F)(F)F)cc2C(=O)Nc2cccc(C(NCC3CC3)c3ccccn3)c2)c1 (stereo not shown) [83c, 1-(3-(aminomethyl)phenyl)-N-(3-((cyclopropylmethylamino)(pyridin-2-yl)methyl)phenyl)-3-(trifluoromethyl)-1H-pyrazole-5-carboxamide]",0.1 to 50 nM
23,"CS(=O)(=O)NC(CCC1CC1)(c1ccncc1)c1ccc(F)c(NC(=O)c2cc(C(F)(F)F)nn2-c2cccc(CN)c2)c1 (single isomer, unassigned; (-)) [245c, (−)-1-(3-(aminomethyl)phenyl)-N-(5-(3-cyclopropyl-1-(methylsulfonamido)-1-(pyridin-4-yl)propyl)-2-fluorophenyl)-3-(trifluoromethyl)-1H-pyrazole-5-carboxamide]",0.1 to 50 nM
24,"NCc1cccc(-n2nc(C(F)(F)F)cc2C(=O)Nc2cccc(C(OCC3CC3)c3cccnc3)c2)c1 (racemic) [44c, 1-(3-(aminomethyl)phenyl)-N-(3-((cyclopropylmethoxy)(pyridin-3-yl)methyl)phenyl)-3-(trifluoromethyl)-1H-pyrazole-5-carboxamide]",0.1 to 50 nM
25,"NCc1cccc(-n2nc(C(F)(F)F)cc2C(=O)Nc2cc(C(NCC3CC3)c3cccnc3)ccc2F)c1 (stereo not shown) [94b, 1-(3-(aminomethyl)phenyl)-N-(5-((cyclopropylmethylamino)(pyridin-3-yl)methyl)-2-fluorophenyl)-3-(trifluoromethyl)-1H-pyrazole-5-carboxamide]",0.1 to 50 nM
26,"CCC(CO)NC(c1ccccc1)c1cccc(NC(=O)c2cc(C(F)(F)F)nn2-c2cccc(CN)c2)c1 (stereo not shown) [168b, 1-(3-(Aminomethyl)phenyl)-N-(3-(((1-hydroxybutan-2-yl)amino)(phenyl)methyl)phenyl)-3-(trifluoromethyl)-1H-pyrazole-5-carboxamide]",0.1 to 50 nM
27,"N=C(N)c1cccc(-n2nc(C(F)(F)F)cc2C(=O)Nc2cc(C(NCC3CC3)c3ccccc3)ccc2F)c1 (single isomer, unassigned; (-)) [227d, (−)-1-(3-carbamimidoylphenyl)-N-(5-((cyclopropylmethylamino)(phenyl)methyl)-2-fluorophenyl)-3-(trifluoromethyl)-1H-pyrazole-5-carboxamide]",0.1 to 50 nM
28,"N#Cc1cc(C(=O)Nc2cc(C(NCC3CC3)c3ccccc3)ccc2F)n(-c2cccc(CN)c2)n1 (single isomer, unassigned; (-)) [240b, (−)-1-(3-(aminomethyl)phenyl)-3-cyano-N-(5-((cyclopropylmethylamino)(phenyl)methyl)-2-fluorophenyl)-1H-pyrazole-5-carboxamide]",0.1 to 50 nM
